Measurements: patent publication US20230357320A1, “HELICAL STAPLED PEPTIDES AND USES THEREOF” (FOG PHARMACEUTICALS, INC., priority 2020, published 2023)
Positions of bridges follow the written chain, without caps; N, C: chain ends. Non-standard residues stand in square brackets, D forms with d. Residues, ends and D or L forms follow the SMILES beside them. αAllylPro = C=CC[C@@]1(C(=O)O)CCCN1; S5 = C=CCCC[C@](C)(N)C(=O)O

Assays:
[1] = parameters: PAMPA Pe: dose or concentration left out as unconfirmed; conditions: for % Retention: PAMPA; for PAMPA Pe: 5 h, pH 7.4
in vitro = assay: in vitro; parameters: dose or concentration left out as unconfirmed; conditions: PAMPA
[2] = CHI Log D measurement (chromatographic hydrophobicity index); conditions: pH 7.4
Experimental: Finally, to measure hydrophobicity, a CHI Log D measurement assay was employed. […] The retention time measurements were performed using reverse-phase HPLC and Q-Exactive mass spectrometer with Phenomenex Gemini C-18 column (3 uM, 50×3 mm). The reverse-phase chromatography was performed using a gradient of 10 mM ammonium acetate at pH=7.4 and acetonitrile solvents. Using the identical solvent setup, gradient, and flowrate, ProLock stapled peptides were injected onto the column to determine the tR of peptides. Using the calibration curve shown in FIG. 7, tR is converted into CHI. CHI was converted into CHI Log D using the following equation.
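Wherever % Retention is given: Phospholipid-membrane PAMPA, donor and acceptor in DPBS pH 7.4 with 5% DMSO, 37 °C for 5 h, compound in each well quantified by reverse-phase HPLC-MS.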
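Wherever PAMPA Pe is given: Phospholipid-membrane PAMPA, donor and acceptor in DPBS pH 7.4 with 5% DMSO, 37 °C for 5 h, compound in each well quantified by reverse-phase HPLC-MS.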
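Wherever Papp is given: Phospholipid-membrane PAMPA, donor and acceptor in DPBS pH 7.4 with 5% DMSO, 37 °C for 5 h, compound in each well quantified by reverse-phase HPLC-MS.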

% Retention [1] [%] | Papp at 5 h (in vitro; pH 7.4, PAMPA Pe) [×10⁻⁶ cm/s] | chromatographic logD [2] | PAMPA Pe [1] | Papp at 5 h (in vitro; pH 7.4, average effective permeability (Pe) of control on accepted PAMPA plates) [×10⁻⁶ cm/s] | Molecule
69 ± 2 | 0.4 ± 0.1 | 1.4 | – | – | CNC(=O)[C@H](CC(=O)O)NC(=O)[C@H](CC(=O)O)NC(=O)[C@H](CC(C)C)NC(=O)[C@H](CC(C)C)NC(=O)[C@H](Cc1ccc(O)cc1)NC(=O)[C@]1(C)CCCC=CC[C@]2(CCCN2)C(=O)N[C@@H](CC(C)C)C(=O)N[C@@H](CC(C)C)C(=O)N1 (single isomer, unassigned) [PLL5-2 variant 1, H-PL3-Leu-Leu-S5-Tyr-Leu-Leu-Asp-Asp-NHMe]
70 ± 2 | 0.2 ± 0.1 | 2.8 | – | – | C=CCCC[C@](C)(NC(=O)[C@H](CC(C)C)NC(=O)[C@H](CC(C)C)NC(=O)[C@]1(CC=C)CCCN1C(C)=O)C(=O)N[C@@H](Cc1ccc(O)cc1)C(=O)N[C@@H](CC(C)C)C(=O)N[C@@H](CC(C)C)C(=O)N[C@@H](CC(=O)O)C(=O)NC [PLL4-10 variant 5, Ac-PL3-Leu-Leu-S5-Tyr-Leu-Leu-Asp-NHMe] (Ac-[αAllylPro]LL[S5]YLLD-NHMe)
43 ± 3 | ≤ 0.1 | 3.3 | – | – | CCCC[C@@H]1NC(=O)[C@H](CC(C)C)NC(=O)[C@]2(CC=CCCC[C@@](C)(C(=O)N[C@@H](CC(C)C)C(=O)N[C@@H](CC(C)C)C(=O)N[C@@H](Cc3c[nH]cn3)C(=O)N[C@@H](Cc3ccc(O)cc3)C(=O)NC)NC1=O)CCCN2C(C)=O (single isomer, unassigned) [PLL4-9, Ac-PL3-Leu-Nle-S5-Leu-Leu-His-Tyr-NHMe]
82 ± 2 | 0.3 ± 0.1 | 2.4 | – | – | CNC(=O)[C@H](CC(=O)O)NC(=O)[C@H](Cc1c[nH]cn1)NC(=O)[C@H](CC(C)C)NC(=O)[C@H](CC(C)C)NC(=O)[C@H](CCCNC(=N)N)NC(=O)[C@]1(C)CCCC=CC[C@]2(CCCN2C(C)=O)C(=O)O[C@@H](CC(C)C)C(=O)N[C@@H](CC(C)C)C(=O)N1 (single isomer, unassigned) [PLL7-9 variant 2, Ac-PL3-Lec-Leu-S5-Arg-Leu-Leu-His-Asp-NHMe]
74 ± 6 | ≤ 0.1 | 2.9 | – | – | CNC(=O)[C@H](CC(=O)O)NC(=O)[C@H](CC(C)C)NC(=O)[C@H](CC(C)C)NC(=O)[C@H](Cc1ccc(O)cc1)NC(=O)[C@]1(C)CCCC=CCCC[C@](C)(NC(C)=O)C(=O)N[C@@H](C)C(=O)N[C@@H](CC(C)C)C(=O)N[C@@H](CC(C)C)C(=O)N1 [PLL4-10 variant 4, Ac-S5-Ala-Leu-Leu-S5-Tyr-Leu-Leu-Asp-NHMe] (Ac-[S5]ALL[S5]YLLD-NHMe; staple 1-5)
106 ± 2 | 0.3 ± 0.1 | 2.2 | – | – | CC(=O)N1CCC[C@]12CC=CCCC[C@@](C)(C(=O)N[C@@H](Cc1ccc(O)cc1)C(=O)N[C@@H](CC(C)C)C(=O)N[C@@H](CC(C)C)C(=O)N[C@@H](CC(=O)O)C(N)=O)NC(=O)[C@H](CC(C)C)NC(=O)[C@H](CC(C)C)NC2=O (single isomer, unassigned) [PLL4-10 variant 3, Ac-PL3-Leu-Leu-S5-Tyr-Leu-Leu-Asp-NH2]
48 ± 3 | ≤ 0.1 | 4 | – | – | CCCC[C@H](NC(=O)[C@H](CC(C)C)NC(=O)[C@]1(C)CCCC=CC[C@]2(CCCN2C(C)=O)C(=O)N[C@@H](C)C(=O)N[C@@H](CC(C)C)C(=O)N1)C(=O)N[C@@H](CC(C)C)C(=O)N[C@@H](C)C(=O)N[C@@H](Cc1ccc(O)cc1)C(=O)NC (single isomer, unassigned) [PLL4-6, Ac-PL3-Ala-Leu-S5-Leu-Nle-Leu-Ala-Tyr-NHMe]
79 ± 3 | ≤ 0.1 | 2.2 | – | – | CNC(=O)[C@H](Cc1ccc(O)cc1)NC(=O)[C@@H](NC(=O)[C@H](CC(C)C)NC(=O)[C@H](CC(C)C)NC(=O)[C@H](CC(N)=O)NC(=O)[C@]1(C)CCCC=CCCC[C@](C)(NC(C)=O)C(=O)N[C@@H](C)C(=O)N[C@@H](CCCCN)C(=O)N[C@@H](CC(C)C)C(=O)N1)[C@@H](C)O [PLL4-5 variant 4, Ac-S5-Ala-Lys-Leu-S5-Asn-Leu-Leu-Thr-Tyr-NHMe] (Ac-[S5]AKL[S5]NLLTY-NHMe; staple 1-5)
78 ± 8 | 0.4 ± 0.1 | 1.6 | – | – | CC(=O)N1CCC[C@]12CC=CCCC[C@@](C)(C(=O)N[C@@H](CC(N)=O)C(=O)N[C@@H](CC(C)C)C(=O)N[C@@H](CC(C)C)C(=O)N[C@H](C(=O)N[C@@H](Cc1ccc(O)cc1)C(N)=O)[C@@H](C)O)NC(=O)[C@H](CC(C)C)NC(=O)[C@H](CCCCN)NC2=O (single isomer, unassigned) [PLL4-5 variant 3, Ac-PL3-Lys-Leu-S5-Asn-Leu-Leu-Thr-Tyr-NH2]
73 ± 4 | ≤ 0.1 | 2.3 | – | – | C=CCCC[C@](C)(NC(=O)[C@H](CC(C)C)NC(=O)[C@H](CCCCN)NC(=O)[C@]1(CC=C)CCCN1C(C)=O)C(=O)N[C@@H](CC(N)=O)C(=O)N[C@@H](CC(C)C)C(=O)N[C@@H](CC(C)C)C(=O)N[C@H](C(=O)N[C@@H](Cc1ccc(O)cc1)C(=O)NC)[C@@H](C)O [PLL4-5 variant 5, Ac-PL3-Lys-Leu-S5-Asn-Leu-Leu-Thr-Tyr-NHMe] (Ac-[αAllylPro]KL[S5]NLLTY-NHMe)
101 ± 24 | ≤ 0.1 | 2.7 | – | – | CNC(=O)[C@H](CC(=O)O)NC(=O)[C@H](Cc1c[nH]cn1)NC(=O)[C@H](CC(C)C)NC(=O)[C@H](CC(C)C)NC(=O)[C@H](CCCNC(=N)N)NC(=O)[C@]1(C)CCCC=CCCC[C@](C)(NC(C)=O)C(=O)N[C@@H](C)C(=O)N[C@@H](CC(C)C)C(=O)N[C@@H](CC(C)C)C(=O)N1 [PLL7-9 variant 4, Ac-S5-Ala-Leu-Leu-S5-Arg-Leu-Leu-His-Asp-NHMe] (Ac-[S5]ALL[S5]RLLHD-NHMe; staple 1-5)
103 ± 2 | 0.9 ± 0.2 | 2.6 | – | – | CNC(=O)[C@H](CC(N)=O)NC(=O)[C@H](CC(N)=O)NC(=O)[C@H](CC(C)C)NC(=O)[C@H](CC(C)C)NC(=O)[C@H](CC1CC1)NC(=O)[C@]1(C)CCCC=CC[C@]2(CCCN2C(C)=O)C(=O)N[C@@H](C)C(=O)N[C@@H](CC(C)C)C(=O)N1 (single isomer, unassigned) [PLL7-11, Ac-PL3-Ala-Leu-S5-Cpa-Leu-Leu-Asn-Asn-NHMe]
92 ± 10 | – | – | ≤0.1 (×10^−6) cm/sec | – | Ac-PL3-Lec-Leu-S5-Tyr-Leu-Leu-Asp-NHMe [PLL4-10 variant 2]
88 ± 4 | 0.3 ± 0.1 | 2.7 | – | – | C=CCCC[C@](C)(NC(=O)[C@H](CC(C)C)NC(=O)[C@H](C)NC(=O)[C@]1(CC=C)CCCN1C(C)=O)C(=O)N[C@@H](Cc1c[nH]cn1)C(=O)N[C@@H](CC(C)C)C(=O)N[C@@H](CC(C)C)C(=O)N[C@@H](CC(N)=O)C(=O)NC [PLL7-20 variant 5, Ac-PL3-Ala-Leu-S5-His-Leu-Leu-Asn-NHMe] (Ac-[αAllylPro]AL[S5]HLLN-NHMe)
– | 8.6 ± 0.3 | – | 8.6 ± 0.3 (x10^−6) cm/sec | 7 to 11 | CC(=O)CC(c1ccccc1)c1c(O)c2ccccc2oc1=O (centres unmarked) [Warfarin, reference compound]
